According to paper PMC7180948, “New Insights into 4-Anilinoquinazolines as Inhibitors of Cardiac Troponin I–Interacting Kinase (TNNi3K)” (Molecules, 2020):

How the values were obtained:
Assay in all cases: biochemical
Set-up in all cases: KINOMEscan competition binding panel (Eurofins DiscoverX), single concentration, percent inhibition
Conditions in all cases: read-out: 15 at 1 µM % inhibition
STK33 = STK33 (Homo sapiens, UniProt Q9BYT3)
Summary of the method: (§1)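 Compounds were submitted at 1 µM to a KINOMEscan assay covering more than 400 human kinases. The screen served to define the selectivity profile.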

TNIK = TNIK (Homo sapiens, UniProt Q9UKE5)
Summary of the method: as §1

CDK7 = CDK7 (Homo sapiens, UniProt P50613)
Sequence of CDK7 (P50613 whole entry): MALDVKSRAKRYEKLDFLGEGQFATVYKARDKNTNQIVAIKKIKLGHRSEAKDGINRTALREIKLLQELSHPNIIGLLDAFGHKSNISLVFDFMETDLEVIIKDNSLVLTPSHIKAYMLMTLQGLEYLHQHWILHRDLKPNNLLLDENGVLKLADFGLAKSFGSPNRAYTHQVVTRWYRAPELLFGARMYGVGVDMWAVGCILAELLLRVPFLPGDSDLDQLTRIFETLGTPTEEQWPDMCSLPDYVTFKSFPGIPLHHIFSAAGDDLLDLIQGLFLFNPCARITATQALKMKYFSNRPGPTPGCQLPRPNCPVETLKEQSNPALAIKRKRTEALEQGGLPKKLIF
Summary of the method: as §1

PLK3 = PLK3 (Homo sapiens, UniProt Q9H4B4)
Summary of the method: as §1

PIK3CA = PIK3CA (Homo sapiens, UniProt P42336)
Summary of the method: as §1

[1] = biological target: T1, ABL1(Y253F)-phosphorylated (Homo sapiens, UniProt P00519, Y253F)
T1 construct: phosphorylated
Summary of the method: as §1

CSNK1A1 = CSNK1A1 (Homo sapiens, UniProt P48729)
Sequence of CSNK1A1 (P48729 whole entry): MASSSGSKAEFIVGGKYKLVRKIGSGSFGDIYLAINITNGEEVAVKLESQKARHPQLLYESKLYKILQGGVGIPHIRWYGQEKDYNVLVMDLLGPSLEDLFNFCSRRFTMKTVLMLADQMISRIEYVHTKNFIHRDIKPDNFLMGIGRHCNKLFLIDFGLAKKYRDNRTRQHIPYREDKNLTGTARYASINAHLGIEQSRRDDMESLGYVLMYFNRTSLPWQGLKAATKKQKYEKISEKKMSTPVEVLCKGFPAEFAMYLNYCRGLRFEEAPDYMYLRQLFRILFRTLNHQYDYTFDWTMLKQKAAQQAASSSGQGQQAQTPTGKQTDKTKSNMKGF
Summary of the method: as §1

MEK3 = biological target: T2, MEK3 (Homo sapiens, UniProt P46734)
T2 construct: gene MAP2K3
T2 sequence (P46734 whole entry): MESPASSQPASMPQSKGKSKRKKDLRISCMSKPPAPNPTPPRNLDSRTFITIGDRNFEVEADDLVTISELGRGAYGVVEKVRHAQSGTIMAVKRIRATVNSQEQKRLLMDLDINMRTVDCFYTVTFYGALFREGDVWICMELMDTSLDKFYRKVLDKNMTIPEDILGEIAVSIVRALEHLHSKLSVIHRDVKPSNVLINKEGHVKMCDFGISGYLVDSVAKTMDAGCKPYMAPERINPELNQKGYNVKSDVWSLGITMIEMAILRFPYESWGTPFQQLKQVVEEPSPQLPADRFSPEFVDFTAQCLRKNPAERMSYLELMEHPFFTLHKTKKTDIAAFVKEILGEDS
Summary of the method: as §1

DMPK2 = biological target: T3, DMPK2 (Homo sapiens, UniProt Q6DT37)
T3 construct: gene CDC42BPG
Summary of the method: as §1

CAMK2A = CAMK2A (Homo sapiens, UniProt Q9UQM7)
Summary of the method: as §1

YANK2 = biological target: T4, YANK2 (Homo sapiens, UniProt Q9NY57)
T4 construct: gene STK32B
Summary of the method: as §1

CAMK1B = biological target: T5, CAMK1B (Homo sapiens, UniProt Q6P2M8)
T5 construct: gene PNCK
T5 sequence (Q6P2M8 whole entry): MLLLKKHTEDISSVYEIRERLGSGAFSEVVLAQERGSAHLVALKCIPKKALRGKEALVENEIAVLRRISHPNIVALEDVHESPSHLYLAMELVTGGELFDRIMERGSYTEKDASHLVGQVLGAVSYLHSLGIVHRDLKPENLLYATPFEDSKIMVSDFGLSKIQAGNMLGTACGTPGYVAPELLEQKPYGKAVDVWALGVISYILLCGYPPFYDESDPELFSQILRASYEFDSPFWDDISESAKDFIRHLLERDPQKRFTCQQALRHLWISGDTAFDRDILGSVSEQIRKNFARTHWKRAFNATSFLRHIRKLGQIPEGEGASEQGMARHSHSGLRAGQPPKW
Summary of the method: as §1

GSK3B = GSK3B (Homo sapiens, UniProt P49841)
Summary of the method: as §1

IRAK4 = IRAK4 (Homo sapiens, UniProt Q9NWZ3)
Summary of the method: as §1

LYN = LYN (Homo sapiens, UniProt P07948)
Sequence of LYN (P07948 whole entry): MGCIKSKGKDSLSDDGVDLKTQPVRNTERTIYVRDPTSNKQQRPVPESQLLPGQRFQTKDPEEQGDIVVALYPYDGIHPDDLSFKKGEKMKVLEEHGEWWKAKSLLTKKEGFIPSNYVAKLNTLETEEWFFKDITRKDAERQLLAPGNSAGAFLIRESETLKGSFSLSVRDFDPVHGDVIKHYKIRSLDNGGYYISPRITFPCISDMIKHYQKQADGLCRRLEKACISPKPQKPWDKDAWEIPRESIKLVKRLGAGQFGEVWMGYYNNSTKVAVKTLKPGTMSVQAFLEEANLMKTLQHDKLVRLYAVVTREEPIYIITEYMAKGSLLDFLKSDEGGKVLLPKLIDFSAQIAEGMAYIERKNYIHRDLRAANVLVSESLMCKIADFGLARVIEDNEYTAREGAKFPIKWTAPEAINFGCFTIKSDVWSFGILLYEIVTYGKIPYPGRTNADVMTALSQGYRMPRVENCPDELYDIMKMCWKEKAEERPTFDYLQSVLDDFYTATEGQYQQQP
Summary of the method: as §1

CAMKK2 = CAMKK2 (Homo sapiens, UniProt Q96RR4)
Sequence of CAMKK2 (Q96RR4 whole entry): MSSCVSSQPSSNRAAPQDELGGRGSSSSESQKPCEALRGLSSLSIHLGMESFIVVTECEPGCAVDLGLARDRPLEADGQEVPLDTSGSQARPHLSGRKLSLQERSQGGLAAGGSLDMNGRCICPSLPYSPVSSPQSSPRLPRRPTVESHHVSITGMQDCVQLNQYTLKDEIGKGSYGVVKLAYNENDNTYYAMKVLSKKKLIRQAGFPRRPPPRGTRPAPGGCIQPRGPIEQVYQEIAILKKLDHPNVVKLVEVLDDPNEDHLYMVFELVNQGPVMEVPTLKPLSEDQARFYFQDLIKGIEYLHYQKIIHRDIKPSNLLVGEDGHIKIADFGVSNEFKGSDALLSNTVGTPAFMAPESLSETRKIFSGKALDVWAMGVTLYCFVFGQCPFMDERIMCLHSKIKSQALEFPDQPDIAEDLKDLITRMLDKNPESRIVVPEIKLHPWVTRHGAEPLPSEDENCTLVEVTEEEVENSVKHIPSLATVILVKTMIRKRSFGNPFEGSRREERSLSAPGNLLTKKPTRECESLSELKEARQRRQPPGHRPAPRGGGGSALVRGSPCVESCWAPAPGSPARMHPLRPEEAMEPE
Summary of the method: as §1

HIPK3 = HIPK3 (Homo sapiens, UniProt Q9H422)
Summary of the method: as §1

YSK1 = biological target: T6, YSK1 (Homo sapiens, UniProt O00506)
T6 construct: gene STK25
Summary of the method: as §1

PRKG1 = PRKG1 (Homo sapiens, UniProt Q13976)
Sequence of PRKG1 (Q13976 whole entry): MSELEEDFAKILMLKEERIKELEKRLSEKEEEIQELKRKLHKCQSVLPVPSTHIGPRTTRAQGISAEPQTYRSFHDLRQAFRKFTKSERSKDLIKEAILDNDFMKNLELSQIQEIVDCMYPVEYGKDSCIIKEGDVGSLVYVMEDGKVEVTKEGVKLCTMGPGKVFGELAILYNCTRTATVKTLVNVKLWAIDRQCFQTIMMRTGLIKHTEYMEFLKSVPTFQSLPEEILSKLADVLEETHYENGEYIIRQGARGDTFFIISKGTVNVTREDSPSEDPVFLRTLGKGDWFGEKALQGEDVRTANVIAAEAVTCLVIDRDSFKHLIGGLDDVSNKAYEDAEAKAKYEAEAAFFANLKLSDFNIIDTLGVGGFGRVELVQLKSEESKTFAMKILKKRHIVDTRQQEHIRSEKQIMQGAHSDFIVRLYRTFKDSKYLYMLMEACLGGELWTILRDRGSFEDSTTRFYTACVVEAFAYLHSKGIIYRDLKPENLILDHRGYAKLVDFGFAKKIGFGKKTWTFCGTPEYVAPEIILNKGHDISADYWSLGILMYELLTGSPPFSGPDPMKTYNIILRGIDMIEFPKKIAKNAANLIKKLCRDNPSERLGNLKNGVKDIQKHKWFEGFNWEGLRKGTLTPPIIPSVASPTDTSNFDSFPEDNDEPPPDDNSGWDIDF
Summary of the method: as §1

[2] = biological target: T7, TYK2(JH1domain-catalytic) (Homo sapiens, UniProt P29597)
T7 construct: JH1domain-catalytic
T7 sequence (P29597 whole entry): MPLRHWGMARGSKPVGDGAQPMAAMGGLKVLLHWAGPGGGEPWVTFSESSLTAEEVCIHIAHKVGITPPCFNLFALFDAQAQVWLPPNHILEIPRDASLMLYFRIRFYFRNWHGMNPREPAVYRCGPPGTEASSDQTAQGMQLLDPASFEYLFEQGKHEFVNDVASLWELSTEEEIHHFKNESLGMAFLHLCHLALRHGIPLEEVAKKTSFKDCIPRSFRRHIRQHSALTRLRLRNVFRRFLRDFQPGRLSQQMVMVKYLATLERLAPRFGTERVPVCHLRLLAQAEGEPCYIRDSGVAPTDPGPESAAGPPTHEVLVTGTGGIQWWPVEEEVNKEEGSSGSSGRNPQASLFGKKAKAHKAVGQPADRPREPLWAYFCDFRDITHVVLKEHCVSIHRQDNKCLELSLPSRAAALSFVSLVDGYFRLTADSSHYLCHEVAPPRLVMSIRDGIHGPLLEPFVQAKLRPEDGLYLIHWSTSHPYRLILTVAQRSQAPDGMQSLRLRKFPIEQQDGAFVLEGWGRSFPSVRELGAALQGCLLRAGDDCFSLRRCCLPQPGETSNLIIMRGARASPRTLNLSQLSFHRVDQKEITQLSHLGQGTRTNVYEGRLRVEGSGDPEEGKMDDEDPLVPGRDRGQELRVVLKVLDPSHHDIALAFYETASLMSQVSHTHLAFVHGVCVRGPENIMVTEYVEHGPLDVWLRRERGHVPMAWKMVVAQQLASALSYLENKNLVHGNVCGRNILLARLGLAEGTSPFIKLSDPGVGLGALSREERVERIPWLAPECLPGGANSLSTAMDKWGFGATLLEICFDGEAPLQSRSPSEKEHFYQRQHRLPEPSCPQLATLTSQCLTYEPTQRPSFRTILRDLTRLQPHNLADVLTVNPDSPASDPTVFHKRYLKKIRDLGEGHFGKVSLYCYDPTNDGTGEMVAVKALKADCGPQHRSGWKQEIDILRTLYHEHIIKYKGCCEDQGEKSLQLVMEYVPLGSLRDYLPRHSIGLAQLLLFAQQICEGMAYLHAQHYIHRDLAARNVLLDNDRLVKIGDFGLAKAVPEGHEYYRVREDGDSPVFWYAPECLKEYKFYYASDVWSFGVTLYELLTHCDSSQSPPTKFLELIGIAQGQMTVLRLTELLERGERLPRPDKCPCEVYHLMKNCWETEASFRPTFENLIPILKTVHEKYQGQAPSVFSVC
Summary of the method: as §1

MELK = MELK (Homo sapiens, UniProt Q14680)
Sequence of MELK (Q14680 whole entry): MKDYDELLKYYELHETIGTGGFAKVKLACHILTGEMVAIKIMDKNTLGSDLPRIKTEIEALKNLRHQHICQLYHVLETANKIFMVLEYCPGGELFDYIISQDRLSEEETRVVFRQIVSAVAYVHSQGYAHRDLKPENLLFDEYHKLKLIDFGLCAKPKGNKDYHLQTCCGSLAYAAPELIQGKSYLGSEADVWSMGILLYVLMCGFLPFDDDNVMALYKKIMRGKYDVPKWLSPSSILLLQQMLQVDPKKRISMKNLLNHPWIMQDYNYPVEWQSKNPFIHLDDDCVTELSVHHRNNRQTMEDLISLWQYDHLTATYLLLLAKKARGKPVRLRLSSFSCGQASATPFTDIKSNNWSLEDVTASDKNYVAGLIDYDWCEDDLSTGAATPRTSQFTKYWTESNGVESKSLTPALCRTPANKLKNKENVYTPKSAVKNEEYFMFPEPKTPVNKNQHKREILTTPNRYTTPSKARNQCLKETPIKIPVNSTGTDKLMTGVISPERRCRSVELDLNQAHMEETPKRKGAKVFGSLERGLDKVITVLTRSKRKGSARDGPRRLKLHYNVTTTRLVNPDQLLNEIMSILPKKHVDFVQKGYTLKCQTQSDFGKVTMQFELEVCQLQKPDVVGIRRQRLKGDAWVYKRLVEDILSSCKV
Summary of the method: as §1

[3] = biological target: T8, ABL1(Q252H)-nonphosphorylated (Homo sapiens, UniProt P00519, Q252H)
T8 construct: nonphosphorylated
Summary of the method: as §1

STK35 = STK35 (Homo sapiens, UniProt Q8TDR2)
Summary of the method: as §1

FLT3(D835H) = FLT3(D835H) (Homo sapiens, UniProt P36888, D835H)
Summary of the method: as §1

inhibition at 1 µM (STK33): 0%
inhibition at 1 µM (TNIK): 1%
inhibition at 1 µM (CDK7): 18%
inhibition at 1 µM (PLK3): 8%
inhibition at 1 µM (PIK3CA): 13%
inhibition at 1 µM [1]: 18%
inhibition at 1 µM (CSNK1A1): 0%
inhibition at 1 µM (MEK3): 22%
inhibition at 1 µM (DMPK2): 5%
inhibition at 1 µM (CAMK2A): 4%
inhibition at 1 µM (YANK2): 0%
inhibition at 1 µM (CAMK1B): 28%
inhibition at 1 µM (GSK3B): 17%
inhibition at 1 µM (IRAK4): 0%
inhibition at 1 µM (LYN): 0%
inhibition at 1 µM (CAMKK2): 3%
inhibition at 1 µM (HIPK3): 28%
inhibition at 1 µM (YSK1): 13%
inhibition at 1 µM (PRKG1): 0%
inhibition at 1 µM [2]: 0%
inhibition at 1 µM (MELK): 0%
inhibition at 1 µM [3]: 33%
inhibition at 1 µM (STK35): 0%
inhibition at 1 µM (FLT3(D835H)): 10%
SMILES: CNS(=O)(=O)c1ccc(N(C)C)c(Nc2nc(C)nc3cc(OC)c(OC)cc23)c1 [compound 15, 3-((6,7-dimethoxy-2-methylquinazolin-4-yl)amino)-4-(dimethylamino)-N-methylbenzenesulfonamide]
